# Results published in patent US20260174083A1, “FUNGICIDAL MIXTURE COMPRISING SUBSTITUTED PYRIDINES” (BASF SE, priority 2022, published 2026).
# Like-named read-outs stand apart in the source and are kept apart here.
# Assays:
# Format in all cases: cell-based
# Septoria tritici = test: Activity against leaf blotch on wheat caused by Septoria tritici (microtiterplate test)
# Pyricularia oryzae = test: microbe, parasite or virus in culture; conditions: for Observed efficacy: single active, MTP, 405 nm, 7 days after inoculation
# Botrytis cinerea = test: Activity against the grey mold Botrytis cinerea in the microtiterplate test
# [1] = Zymoseptoria tritici, 168 h, single active, MTP, 405 nm, 7 days after inoculation, read-out: Observed efficacy
# [2] = Zymoseptoria tritici, 168 h, single active, 0.016 ppm, MTP, 405 nm, 7 days after inoculation, read-out: Observed efficacy
# [3] = Zymoseptoria tritici, 168 h, single active, 0.063 ppm, MTP, 405 nm, 7 days after inoculation, read-out: Observed efficacy
# [4] = Zymoseptoria tritici, 168 h, single active, 0.25 ppm, MTP, 405 nm, 7 days after inoculation, read-out: Observed efficacy
# [5] = Pyricularia oryzae, 168 h, read-out: Observed efficacy
# [6] = Botrytis cinerea, 168 h, single active, MTP, 405 nm, 7 days after inoculation, read-out: Observed efficacy
# [7] = Botrytis cinerea, 168 h, single active, 1 ppm, MTP, 405 nm, 7 days after inoculation, read-out: Observed efficacy
# [8] = single active, 0.063 ppm, MTP, 405 nm, 7 days after inoculation
# [9] = Botrytis cinerea, 168 h, single active, 4 ppm, MTP, 405 nm, 7 days after inoculation, read-out: Observed efficacy
smiles,measurement,setting,value
"CO/C=C(/C(=O)OC)c1ccccc1Oc1cc(Oc2ccccc2C#N)ncn1 [Azoxystrobin, azoxystrobin, reference compound]",Observed efficacy,"Septoria tritici; single active, 0.016 ppm, MTP, 405 nm, 7 days after inoculation",0%
"O=C(Nc1ccccc1-c1ccc(Cl)cc1)c1cccnc1Cl [Boscalid, boscalid, reference compound]",inhibition of growth at 1 ppm,Septoria tritici; [1],54%
Cc1cc(C2=N[C@@H](C)[C@H](C)Oc3ccccc32)cnc1C(F)F [Compound 1-1],inhibition of growth at 0.016 ppm,Septoria tritici; [2],0%
same,inhibition of growth at 0.063 ppm,Septoria tritici; [3],0%
same,inhibition of growth at 0.25 ppm,Septoria tritici; [4],26%
same,inhibition of growth at 0.25 ppm,Pyricularia oryzae; [5],7%
same,inhibition of growth at 0.25 ppm,Botrytis cinerea; [6],7%
Cc1cc(C2=N[C@@H](C)C(C)(C)Oc3c(F)cccc32)cnc1C(F)F [Compound 1-2],inhibition of growth at 0.016 ppm,Septoria tritici; [2],0%
same,inhibition of growth at 0.063 ppm,Septoria tritici; [3],0%
same,inhibition of growth at 0.25 ppm,Septoria tritici; [4],13%
same,inhibition of growth at 0.063 ppm,Pyricularia oryzae; [5],11%
same,inhibition of growth at 0.25 ppm,Pyricularia oryzae; [5],11%
same,inhibition of growth at 1 ppm,Pyricularia oryzae; [5],35%
same,inhibition of growth at 0.063 ppm,"Botrytis cinerea; Botrytis cinerea, 168 h, single active, 0.063 ppm, MTP, 405 nm, 7 days after inoculation, read-out: Observed efficacy",11%
same,inhibition of growth at 0.25 ppm,Botrytis cinerea; [6],11%
same,inhibition of growth at 1 ppm,Botrytis cinerea; [7],35%
Cc1cc(C2=NC(C)C(C)(C)Oc3c(F)cccc32)cnc1C(F)F (stereo not drawn) [Compound 1-3],inhibition of growth at 1 ppm,Pyricularia oryzae; [5],19%
same,inhibition of growth at 1 ppm,Botrytis cinerea; [7],9%
Cc1cc(C2=N[C@@H](C)C(C)(C)Oc3ccccc32)cnc1C(F)F [Compound 1-4],inhibition of growth at 1 ppm,Pyricularia oryzae; [5],17%
same,inhibition of growth at 1 ppm,Botrytis cinerea; [7],17%
Cc1cc(C2=N[C@H](C)C(C)(C)Oc3ccccc32)cnc1C(F)F [Compound 1-5],inhibition of growth at 0.016 ppm,Septoria tritici; [2],0%
same,inhibition of growth at 0.063 ppm,Septoria tritici; [3],3%
same,inhibition of growth at 0.25 ppm,Septoria tritici; [4],1%
Cc1cc(C2=NC3(CC3)COc3c(F)cccc32)cnc1C(F)F [Compound 1-6],inhibition of growth at 0.25 ppm,Septoria tritici; [4],0%
same,inhibition of growth at 1 ppm,Septoria tritici; [1],3%
same,inhibition of growth at 0.25 ppm,Pyricularia oryzae; [5],5%
same,inhibition of growth at 1 ppm,Pyricularia oryzae; [5],14%
same,inhibition of growth at 0.25 ppm,Botrytis cinerea; [6],5%
same,inhibition of growth at 1 ppm,Botrytis cinerea; [7],14%
Cc1cc(C2=NCC(C)(C)Oc3c(F)cccc32)cnc1C(F)F [Compound 1-7],inhibition of growth at 0.016 ppm,Septoria tritici; [2],12%
same,inhibition of growth at 0.25 ppm,Pyricularia oryzae; [5],0%
same,inhibition of growth at 0.25 ppm,Botrytis cinerea; [6],0%
"CC1COC(Cn2cncn2)(c2ccc(Oc3ccc(Cl)cc3)cc2Cl)O1 (stereo not drawn) [Difenoconazol, difenoconazole, reference compound]",inhibition of growth at 0.25 ppm,Pyricularia oryzae; [5],26%
same,inhibition of growth at 0.25 ppm,Botrytis cinerea; [6],26%
"CNC(=O)/C(=N/OC)c1ccccc1COc1cc(C)ccc1C [Dimoxystrobin, dimoxystrobin, reference compound]",Observed efficacy,Pyricularia oryzae; 1 ppm,16%
same,Observed efficacy,"Botrytis cinerea; single active, 1 ppm, MTP, 405 nm, 7 days after inoculation",16%
"N#Cc1c[nH]cc1-c1cccc2c1OC(F)(F)O2 [Fludioxonil, fludioxonil, reference compound]",inhibition of growth at 0.25 ppm,"Septoria tritici; Zymoseptoria tritici, 168 h, read-out: Observed efficacy",26%
"Cn1cc(C(=O)Nc2ccccc2-c2cc(F)c(F)c(F)c2)c(C(F)F)n1 [Fluxapyroxad, fluxapyroxad, reference compound]",Observed efficacy,Septoria tritici; [8],37%
"CC(C)NC(=O)N1CC(=O)N(c2cc(Cl)cc(Cl)c2)C1=O [Iprodion, iprodione, reference compound]",inhibition of growth at 1 ppm,Pyricularia oryzae; [5],60%
same,inhibition of growth at 1 ppm,Botrytis cinerea; [7],60%
"Cc1cc(OC(C)C)ccc1C(=O)C(C)(C)NC(=O)c1sccc1C [Isofetamid, isofetamid, reference compound]",Observed efficacy,"Septoria tritici; single active, 0.25 ppm, MTP, 405 nm, 7 days after inoculation",46%
"CC(C)OC(=O)C(C(=O)OC(C)C)=C1SCCS1 [Isoprothiolan, isoprothiolane, reference compound]",inhibition of growth at 4 ppm,Pyricularia oryzae; [5],8%
same,inhibition of growth at 4 ppm,"Botrytis cinerea; Botrytis cinerea, 168 h, read-out: Observed efficacy",8%
"N#Cc1ccccc1NC(=O)c1snc(Cl)c1Cl [Isotianil, isotianil, reference compound]",Observed efficacy,Pyricularia oryzae; 4 ppm,6%
same,Observed efficacy,"Botrytis cinerea; single active, 4 ppm, MTP, 405 nm, 7 days after inoculation",6%
"CC(O)(Cn1cncn1)c1ccc(Oc2ccc(Cl)cc2)cc1C(F)(F)F (stereo not drawn) [Mefentrifluconazol, mefentrifluconazole, reference compound]",Observed efficacy,Pyricularia oryzae; 0.063 ppm,49%
same,Observed efficacy,Botrytis cinerea; [8],49%
"OC(Cc1ccccc1Cl)(Cn1nc[nH]c1=S)C1(Cl)CC1 (stereo not drawn) [Prothioconazol, prothioconazole, reference compound]",inhibition of growth at 0.25 ppm,Septoria tritici; [4],42%
same,inhibition of growth at 4 ppm,Pyricularia oryzae; [5],35%
same,inhibition of growth at 4 ppm,Botrytis cinerea; [9],35%
"COC(=O)NC(=S)Nc1ccccc1NC(=S)NC(=O)OC [Thiophanate methyl, thiophanate-methyl, reference compound]",inhibition of growth at 1 ppm,Septoria tritici; [1],10%
same,inhibition of growth at 1 ppm,Pyricularia oryzae; [5],9%
same,inhibition of growth at 1 ppm,Botrytis cinerea; [7],9%
"Cc1ccc(NC(=O)c2snnc2C)cc1Cl [Tiadinil, tiadinil, reference compound]",inhibition of growth at 4 ppm,"Septoria tritici; Zymoseptoria tritici, 168 h, single active, 4 ppm, MTP, 405 nm, 7 days after inoculation, read-out: Observed efficacy",24%
"Cc1cccc2sc3nncn3c12 [Tricyclazol, tricyclazole, reference compound]",inhibition of growth at 1 ppm,Septoria tritici; [1],14%
same,inhibition of growth at 4 ppm,Pyricularia oryzae; [5],14%
same,inhibition of growth at 4 ppm,Botrytis cinerea; [9],14%
